Results taken from PubChem BioAssay AID2060884 (Molecular Pharmacology Branch, DTP, NCI, 2025).
pIC50: −log10 of the molar value.

System: NCI-H929 complex spheroids, viability % test/control
Assay: Anticancer human tumor NCI-H929 cell line growth inhibition [RAS];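 further: compound exposure lasted seven days before viability was read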;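 on viability, T/C: 100% = DMSO vehicle control viability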
Conditions: for pIC50: curve of first compound; for viability, T/C: stronger effect = lower value; active means viability on the fitted dose curve at most 10% of control; inactive means the rest
How it was run: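 Agents were tested in combination matrices in half-log decrements from a top concentration at or near clinical Cmax (10 microM if undetermined). Targets were multi-cell spheroids of tumour lines plus HUVEC and MSC stromal cells.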

O=C(c1ccc(F)c(F)c1Nc1ccc(I)cc1F)N1CC(O)([C@@H]2CCCCN2)C1 + C#Cc1c(F)ccc2cc(O)cc(-c3ncc4c(N5CC6CCC(C5)N6)nc(OCC56CCCN5CC(F)C6)nc4c3F)c12
inactive: viability, T/C (second compound 0.0316 µM, first compound 0.00316 µM) 83.7% | viability, T/C (second compound 0.0316 µM, first compound 0.01 µM) 91.4% | viability, T/C (second compound 0.0316 µM, first compound 0.0316 µM) 84.5% | viability, T/C (second compound 0.0316 µM, first compound 0.1 µM) 91.7% | viability, T/C (second compound 0.0316 µM, first compound 0.316 µM) 113% | viability, T/C (second compound 0.0316 µM, first compound 1 µM) 60.2% | viability, T/C (second compound 0.1 µM, first compound 0.00316 µM) 96.5% | viability, T/C (second compound 0.1 µM, first compound 0.01 µM) 91.3% | viability, T/C (second compound 0.1 µM, first compound 0.0316 µM) 84.4% | viability, T/C (second compound 0.1 µM, first compound 0.1 µM) 98.7% | viability, T/C (second compound 0.1 µM, first compound 0.316 µM) 114% | viability, T/C (second compound 0.1 µM, first compound 1 µM) 60% | viability, T/C (second compound 0.316 µM, first compound 0.00316 µM) 95% | viability, T/C (second compound 0.316 µM, first compound 0.01 µM) 91% | viability, T/C (second compound 0.316 µM, first compound 0.0316 µM) 82.3% | viability, T/C (second compound 0.316 µM, first compound 0.1 µM) 95% | viability, T/C (second compound 0.316 µM, first compound 0.316 µM) 115% | viability, T/C (second compound 0.316 µM, first compound 1 µM) 54% | viability, T/C (second compound 1 µM, first compound 0.00316 µM) 90.8% | viability, T/C (second compound 1 µM, first compound 0.01 µM) 92.7% | viability, T/C (second compound 1 µM, first compound 0.0316 µM) 85.4% | viability, T/C (second compound 1 µM, first compound 0.1 µM) 93.5% | viability, T/C (second compound 1 µM, first compound 0.316 µM) 116% | viability, T/C (second compound 1 µM, first compound 1 µM) 50.6% | viability, T/C (second compound 3.16 µM, first compound 0.00316 µM) 90.2% | viability, T/C (second compound 3.16 µM, first compound 0.01 µM) 91.2% | viability, T/C (second compound 3.16 µM, first compound 0.0316 µM) 81% | viability, T/C (second compound 3.16 µM, first compound 0.1 µM) 94.5% | viability, T/C (second compound 3.16 µM, first compound 0.316 µM) 118% | viability, T/C (second compound 3.16 µM, first compound 1 µM) 40.7% | viability, T/C (second compound 10 µM, first compound 0.00316 µM) 94% | viability, T/C (second compound 10 µM, first compound 0.01 µM) 94.1% | viability, T/C (second compound 10 µM, first compound 0.0316 µM) 90.2% | viability, T/C (second compound 10 µM, first compound 0.1 µM) 95.4% | viability, T/C (second compound 10 µM, first compound 0.316 µM) 115% | viability, T/C (second compound 10 µM, first compound 1 µM) 14.8%
6.21: pIC50 (second compound 10 µM)
6.09: pIC50 (second compound 3.16 µM)
< 6.00: pIC50 (second compound 0.0316 µM) | pIC50 (second compound 0.1 µM) | pIC50 (second compound 0.316 µM) | pIC50 (second compound 1 µM)

NC1c2ccccc2OC12CCN(c1cnc3c(N4CCCc5ncccc54)n[nH]c3n1)CC2 (centres undefined) + CCn1c(-c2cccnc2C(C)OC)c2c3cc(ccc31)N1CCOC(CC(NC(=O)C(C(C)C)N(C)C(=O)C3(F)CCN(C(=O)C#CC(C)(C)N(C)C)CC3)C(=O)N3CCCC(N3)C(=O)OCC(C)(C)C2)C1
5.04: pIC50 (second compound 0.0949 µM)
inactive: viability, T/C (second compound 0.000949 µM, first compound 0.0316 µM) 103% | viability, T/C (second compound 0.000949 µM, first compound 0.1 µM) 100% | viability, T/C (second compound 0.000949 µM, first compound 0.316 µM) 103% | viability, T/C (second compound 0.000949 µM, first compound 1 µM) 98.5% | viability, T/C (second compound 0.000949 µM, first compound 3.16 µM) 94.5% | viability, T/C (second compound 0.000949 µM, first compound 10 µM) 60.7% | viability, T/C (second compound 0.003 µM, first compound 0.0316 µM) 103% | viability, T/C (second compound 0.003 µM, first compound 0.1 µM) 96.5% | viability, T/C (second compound 0.003 µM, first compound 0.316 µM) 102% | viability, T/C (second compound 0.003 µM, first compound 1 µM) 97.7% | viability, T/C (second compound 0.003 µM, first compound 3.16 µM) 95.7% | viability, T/C (second compound 0.003 µM, first compound 10 µM) 58.5% | viability, T/C (second compound 0.00949 µM, first compound 0.0316 µM) 101% | viability, T/C (second compound 0.00949 µM, first compound 0.1 µM) 99.6% | viability, T/C (second compound 0.00949 µM, first compound 0.316 µM) 101% | viability, T/C (second compound 0.00949 µM, first compound 1 µM) 96.8% | viability, T/C (second compound 0.00949 µM, first compound 3.16 µM) 93.2% | viability, T/C (second compound 0.00949 µM, first compound 10 µM) 54.1% | viability, T/C (second compound 0.03 µM, first compound 0.0316 µM) 97.7% | viability, T/C (second compound 0.03 µM, first compound 0.1 µM) 96.9% | viability, T/C (second compound 0.03 µM, first compound 0.316 µM) 99.8% | viability, T/C (second compound 0.03 µM, first compound 1 µM) 99.7% | viability, T/C (second compound 0.03 µM, first compound 3.16 µM) 90.9% | viability, T/C (second compound 0.03 µM, first compound 10 µM) 54.2% | viability, T/C (second compound 0.0949 µM, first compound 0.0316 µM) 99.1% | viability, T/C (second compound 0.0949 µM, first compound 0.1 µM) 98.2% | viability, T/C (second compound 0.0949 µM, first compound 0.316 µM) 93.6% | viability, T/C (second compound 0.0949 µM, first compound 1 µM) 91.2% | viability, T/C (second compound 0.0949 µM, first compound 3.16 µM) 86.5% | viability, T/C (second compound 0.0949 µM, first compound 10 µM) 46.3% | viability, T/C (second compound 0.3 µM, first compound 0.0316 µM) 95.7% | viability, T/C (second compound 0.3 µM, first compound 0.1 µM) 99.6% | viability, T/C (second compound 0.3 µM, first compound 0.316 µM) 99.5% | viability, T/C (second compound 0.3 µM, first compound 1 µM) 93.2% | viability, T/C (second compound 0.3 µM, first compound 3.16 µM) 76.8% | viability, T/C (second compound 0.3 µM, first compound 10 µM) 47.2%
< 5.00: pIC50 (second compound 0.000949 µM) | pIC50 (second compound 0.003 µM) | pIC50 (second compound 0.00949 µM) | pIC50 (second compound 0.03 µM)
5.05: pIC50 (second compound 0.3 µM)
